Counter-ions that a name gives are not always drawn.
Target: T1, TXA2 receptors (Homo sapiens, UniProt P21731)
T1 construct: from tissue; host or cells: human platelets
T1 sequence (P21731 1-343): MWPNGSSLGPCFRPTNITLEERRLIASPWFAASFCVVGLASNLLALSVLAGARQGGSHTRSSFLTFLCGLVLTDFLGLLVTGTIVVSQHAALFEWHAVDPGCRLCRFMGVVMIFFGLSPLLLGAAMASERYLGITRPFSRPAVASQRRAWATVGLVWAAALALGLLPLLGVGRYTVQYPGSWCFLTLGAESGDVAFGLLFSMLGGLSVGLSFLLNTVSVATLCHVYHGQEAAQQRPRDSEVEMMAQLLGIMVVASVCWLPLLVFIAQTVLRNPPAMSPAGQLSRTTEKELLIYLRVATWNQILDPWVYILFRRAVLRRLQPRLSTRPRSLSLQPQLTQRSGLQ
Assay: human platelet binding assay ([^125 I]PTA-OH receptor ligand)
Conditions: 50% inhibition of specific [^125 I]PTA-OH binding; human platelets
Protocol: As indicated above, compounds of the formula (I) have biological activity that is indicative of an ability to antagonise TXA2 receptors. […] The platelet binding assay used was essentially the method described by Mais et al, J. Pharm. Exp. Ther., 1985, 235(3), 729-734 where [^125 I]PTA-OH was used as the receptor ligand. The IC50 values represent the concentration which produces a 50% inhibition of specific [^125 I]PTA-OH binding. The compounds of Examples 1 to 6 were tested in the human platelet binding assays as described above and the results obtained are shown in the Table below: […]

SMILES	IC50
O=C(O)c1ccccc1CN1CCc2ccc(S(=O)(=O)Nc3cccc(Cl)c3)cc2C1 [Example 1, 2-[[7-(3-chlorophenylsulphamoyl)-1,2,3,4-tetrahydroisoquinolin-2-yl]methyl]benzoic acid]	2600 nM
O=C(O)c1cccc(CN2CCc3ccc(S(=O)(=O)Nc4cccc(Cl)c4)cc3C2)c1 [Example 2, 3-[[7-(3-Chlorophenylsulphamoyl)-1,2,3,4-tetrahydroisoquinolin-2-yl]methyl]benzoic acid]	500 nM
O=C(O)c1ccc(CN2CCc3ccc(S(=O)(=O)Nc4cccc(Cl)c4)cc3C2)cc1 [Example 3, 4-[[7-(3-Chlorophenylsulphamoyl)-1,2,3,4-tetrahydroisoquinolin-2-yl]methyl]benzoic acid]	4000 nM

Continued, values first:

IC50	SMILES
5000 nM	COC(=O)c1ccc(CN2CCc3ccc(S(=O)(=O)Nc4cccc(Cl)c4)cc3C2)o1 [Example 4, methyl-5-[[7-(3-chlorophenylsulphamoyl)-1,2,3,4-tetrahydroisoquinolin-2-yl]methyl]-2-furoate]
760 nM	O=C(O)c1ccc(CN2CCc3ccc(S(=O)(=O)Nc4cccc(Cl)c4)cc3C2)o1 [Example 5, 5-[[7-(3-chlorophenylsulphamoyl)-1,2,3,4-tetrahydroisoquinolin-2-yl]methyl]-2-furoic acid]
2900 nM	O=C(O)c1ccnc(CN2CCc3ccc(S(=O)(=O)Nc4cccc(Cl)c4)cc3C2)c1 [Example 6, 2-[[7-(3-chlorophenylsulphamoyl)-1,2,3,4-tetrahydroisoquinolin-2-yl]methyl]isonicotinic acid hydrochloride]
